The source of these data is patent US9399646B2 (Genentech, Inc., priority 2010, dated 2016).

The IC50 is the midpoint of a concentration-inhibition curve. A lower IC50 goes with higher potency.

Bounds are passed on as bounds.

The target of one assay is T1, ER-α in MCF-7 cells (Homo sapiens, UniProt P03372).
T1 sequence (P03372 1-595): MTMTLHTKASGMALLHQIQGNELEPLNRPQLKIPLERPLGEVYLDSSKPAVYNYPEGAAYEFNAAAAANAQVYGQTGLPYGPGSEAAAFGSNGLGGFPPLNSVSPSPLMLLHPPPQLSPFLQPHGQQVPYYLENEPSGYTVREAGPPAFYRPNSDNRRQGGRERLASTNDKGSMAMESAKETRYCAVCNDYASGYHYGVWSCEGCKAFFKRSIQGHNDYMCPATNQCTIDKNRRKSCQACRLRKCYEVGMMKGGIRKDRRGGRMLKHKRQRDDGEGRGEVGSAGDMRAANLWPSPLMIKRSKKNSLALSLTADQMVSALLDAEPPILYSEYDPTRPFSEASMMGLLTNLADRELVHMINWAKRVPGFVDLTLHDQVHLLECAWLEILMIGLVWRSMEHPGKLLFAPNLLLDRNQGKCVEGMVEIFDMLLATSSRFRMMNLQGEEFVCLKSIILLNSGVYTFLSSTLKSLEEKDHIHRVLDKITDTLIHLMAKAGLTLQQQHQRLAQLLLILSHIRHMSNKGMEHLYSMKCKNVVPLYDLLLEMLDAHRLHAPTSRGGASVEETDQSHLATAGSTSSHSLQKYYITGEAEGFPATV
Description: Breast cancer cell ER-α in cell western assay (SP1). It counts as cell-based. On the set-up: endogenous in cells; host or cells: MCF-7. The conditions noted are these: 4 or 24 hr post compound addition; for Emax: MCF7, SP1 antibody, read-out: ER-α In Cell Western Assay (SP1) Max Response; for DC50: SP1 antibody, read-out: ER-α In Cell Western Assay (SP1) IC50. The procedure:
MCF-7 cells were adjusted to a concentration of 200,000 cells per mL in RPMI containing 10% charcoal-stripped FBS and 20 mM HEPES. 16 microliters of the cell suspension (3200 cells) was added to each well of a poly-D-lysine 384 well plate, and the cells were incubated overnight to allow the cells to adhere. The following day an eleven point, serial semilog dilution of each compound was added to the cells in 16 μL at a final concentration ranging from 0.3-0.000003 μM. At 4 or 24 hr post compound addition, the cells were fixed (10% formalin in PBS) for 20 minutes. Cells were permeablized in PBS 0.1% Triton and blocked with LICOR blocking buffer (50 μl/well, 90°). The wells were then incubated overnight at 4° C. with SP1 rabbit monoclonal Ab (Thermo Scientific) diluted 1:1000 in LICOR blocking buffer/0.1% Tween-20. Wells which were treated with blocking buffer with Tween but no antibody were used as a background control. Wells were washed with 0.1% Tween-20/PBS and then incubated in goat anti-rabbit IRDye™ 800CW (LICOR Inc.; 1:1000) and DRAQ5 DNA dye (1:2000 for 2 mM stock) diluted in LICOR blocking buffer containing 0.1% Tween-20 and 0.01% SDS for 60 minutes. Cells were washed (50 μl/well, 5′ each) in 0.1% Tween-20/PBS. Plates were scanned on a LICOR Odyssey infrared imaging system. Integrated intensities in the 800 nm channel and 700 nm channel were measured to determine levels of ER and DNA respectively. Percent ER levels were determined as follows: (Integrated intensity 800 nm sample/integrated intensity 700 nm sample)/(Integrated intensity 800 nm untreated cells/integrated intensity 700 nm untreated cells)×100=% ER levels.

Another assay relates to MCF-7 cells. Description: Breast cancer cell viability assay (CellTiter-Glo, 5 days). It counts as cell-based. As to conditions: 5 days' compound exposure; for IC50: Homo sapiens, MCF7, 120 h. The procedure: MCF-7 cells were adjusted to a concentration of 20,000 cells per mL in RPMI containing 10% FBS and 20 mM HEPES. 16 microliters of the cell suspension (320 cells) was added to each well of a 384 well plate, and the cells were incubated overnight to allow the cells to adhere. The following day an eleven point, serial semilog dilution of each compound was added to the cells in 16 μL at a final concentration ranging from 0.3-0.000003 μM. After 5 days' compound exposure, 16 μL of CellTiter-GLo (Promega, Madison Wis.) was added to the cells the relative luminescence units (RLUs) of each well was determined CellTiter-Glo added to 32 μL of medium without cells was used to obtain a background value. The Percent viability of each sample was determined as follows: (RLU sample-RLU background/RLU untreated cells-RLU background)×100=% viability.
(In general: In ATP-based viability assays light output follows the ATP content of the culture.)

Regarding `CC/C(=C(/c1ccc(/C=C/C(=O)O)cc1)c1cnc2[nH]ncc2c1)c1ccccc1` [Compound 67, (E)-3-(4-((E)-2-Phenyl-1-(1H-pyrazolo[3,4-b]pyridin-5-yl)but-1-en-1-yl)phenyl)acrylic acid], at ER-α in MCF-7 cells, the Emax is ≥ 40% and the DC50 was > 100 nM. In the assay on MCF-7 cells, the “MCF7 Viability Assay Max Response” value was “++ (++ = a single % value ≧ 40%)” and the IC50 is > 100 nM.

For the compound `CC/C(=C(/c1ccc(/C=C/C(=O)O)cc1)c1cnc2[nH]ccc2c1)c1ccccc1` [Compound 68, (E)-3-(4-((E)-2-Phenyl-1-(1H-pyrrolo[2,3-b]pyridin-5-yl)but-1-en-1-yl)phenyl)acrylic acid], at ER-α in MCF-7 cells, the Emax is ≥ 40% and the DC50 was > 100 nM. In the assay with MCF-7 cells, the “MCF7 Viability Assay Max Response” value is “++ (++ = a single % value ≧ 40%)” and the IC50 was > 100 nM.

As for `O=C(O)/C=C/c1ccc(/C(=C(\c2ccccc2)C2CC2)c2cccc3[nH]ncc23)cc1` [Compound 70, (E)-3-(4-((E)-2-Cyclopropyl-1-(1H-indazol-4-yl)-2-phenylvinyl)phenyl)acrylic acid], at ER-α in MCF-7 cells, the Emax was ≥ 40% and the DC50 was ≤ 100 nM. Further, in the assay on MCF-7 cells, the “MCF7 Viability Assay Max Response” value is reported as “++ (++ = a single % value ≧ 40%)” and the IC50 was ≤ 100 nM.

For `O=C(O)/C=C/c1ccc(/C(=C(\c2ccccc2Cl)C2CC2)c2cccc3[nH]ncc23)cc1` [Compound 71, (E)-3-(4-((E)-2-(2-Chlorophenyl)-2-cyclopropyl-1-(1H-indazol-4-yl)vinyl)phenyl)acrylic acid], at ER-α in MCF-7 cells, the Emax is ≥ 40% and the DC50 is ≤ 100 nM. For the same compound, in the assay on MCF-7 cells, the “MCF7 Viability Assay Max Response” value was “++ (++ = a single % value ≧ 40%)” and the IC50 was ≤ 100 nM.

As to `CC/C(=C(/c1ccc(/C=C/C(=O)O)cc1)c1ccc2[nH]nnc2c1)c1ccc(F)cc1Cl` [Compound 72, (E)-3-(4-((E)-1-(1H-Benzo[d][1,2,3]triazol-5-yl)-2-(2-chloro-4-fluorophenyl)but-1-en-1-yl)phenyl)acrylic acid], at ER-α in MCF-7 cells, the Emax is ≥ 40% and the DC50 is ≤ 100 nM. Moreover, in the assay with MCF-7 cells, the “MCF7 Viability Assay Max Response” value is listed as “++ (++ = a single % value ≧ 40%)” and the IC50 was ≤ 100 nM.

Regarding `O=C(O)/C=C/c1ccc(/C(=C(\c2ccc(F)cc2Cl)C2CC2)c2cccc3[nH]ncc23)cc1` [Compound 73, (E)-3-(4-((E)-2-(2-Chloro-4-fluorophenyl)-2-cyclopropyl-1-(1H-indazol-4-yl)vinyl)phenyl)acrylic acid], at ER-α in MCF-7 cells, the Emax was ≥ 40% and the DC50 was ≤ 100 nM. In the assay on MCF-7 cells, the “MCF7 Viability Assay Max Response” value was “++ (++ = a single % value ≧ 40%)” and the IC50 is ≤ 100 nM.

With `CC/C(=C(/c1ccc(/C=C/C(=O)O)cc1)c1ccc2[nH]c(=O)sc2c1)c1ccccc1` [Compound 75, (E)-3-(4-((E)-1-(2-Oxo-2,3-dihydrobenzo[d]thiazol-6-yl)-2-phenylbut-1-en-1-yl)phenyl)acrylic acid], the Emax at ER-α in MCF-7 cells is ≥ 40%. Moreover, in the assay on MCF-7 cells, the “MCF7 Viability Assay Max Response” value is “++ (++ = a single % value ≧ 40%)” and the IC50 was > 100 nM.

Turning to `CC/C(=C(/c1ccc(/C=C/C(=O)O)cc1)c1cc2cn[nH]c2cn1)c1ccccc1` [Compound 81, (E)-3-(4-((E)-2-Phenyl-1-(1H-pyrazolo[3,4-c]pyridin-5-yl)but-1-en-1-yl)phenyl)acrylic acid], on ER-α in MCF-7 cells, the Emax is ≥ 40% and the DC50 is > 100 nM. Moreover, in the assay on MCF-7 cells, the “MCF7 Viability Assay Max Response” value was “++ (++ = a single % value ≧ 40%)” and the IC50 is > 100 nM.

For `CC/C(=C(/c1ccc(/C=C/C(=O)O)cc1)c1ccc2[nH]cnc2c1)c1ccccc1` [Compound 83, (E)-3-(4-((E)-1-(1H-Benzo[d]imidazol-5-yl)-2-phenylbut-1-en-1-yl)phenyl)acrylic acid], the Emax on ER-α in MCF-7 cells was ≥ 40%. Moreover, in the assay with MCF-7 cells, the “MCF7 Viability Assay Max Response” value was “++ (++ = a single % value ≧ 40%)” and the half-inhibitory concentration (IC50) was > 100 nM.

As for `CC/C(=C(/c1ccc(/C=C/C(=O)O)cc1)c1cc(F)cc2[nH]ncc12)c1ccccc1` [Compound 86, (E)-3-(4-((E)-1-(6-Fluoro-1H-indazol-4-yl)-2-phenylbut-1-en-1-yl)phenyl)acrylic acid], at ER-α in MCF-7 cells, the Emax is ≥ 40% and the DC50 was ≤ 100 nM. For the same compound, in the assay with MCF-7 cells, the “MCF7 Viability Assay Max Response” value is listed as “++ (++ = a single % value ≧ 40%)” and the IC50 was ≤ 100 nM.

As to `CC/C(=C(/c1ccc(/C=C/C(=O)O)cc1)c1cccc2[nH]nnc12)c1ccccc1` [Compound 88, (E)-3-(4-((E)-1-(1H-Benzo[d][1,2,3]triazol-4-yl)-2-phenylbut-1-en-1-yl)phenyl)acrylic acid], on ER-α in MCF-7 cells, the Emax was ≥ 40% and the DC50 is > 100 nM. In the assay with MCF-7 cells, the “MCF7 Viability Assay Max Response” value is given as “++ (++ = a single % value ≧ 40%)” and the IC50 is > 100 nM.

Turning to `CC/C(=C(/c1ccc(/C=C/C(=O)O)cc1)c1cccc2[nH]nnc12)c1ccc(F)cc1Cl` [Compound 89, (E)-3-(4-((E)-1-(1H-Benzo[d][1,2,3]triazol-4-yl)-2-(2-chloro-4-fluorophenyl)but-1-en-1-yl)phenyl)acrylic acid], at ER-α in MCF-7 cells, the Emax was ≥ 40% and the DC50 is ≤ 100 nM. In addition, in the assay on MCF-7 cells, the “MCF7 Viability Assay Max Response” value is recorded as “++ (++ = a single % value ≧ 40%)” and the IC50 was ≤ 100 nM.

Regarding `CC/C(=C(/c1ccc(/C=C/C(=O)O)cc1)c1ccc2c[nH]c(=O)cc2c1)c1ccccc1` [Compound 90, (E)-3-(4-((E)-1-(3-Oxo-2,3-dihydroisoquinolin-6-yl)-2-phenylbut-1-en-1-yl)phenyl)acrylic acid], at ER-α in MCF-7 cells, the Emax is ≥ 40% and the DC50 was > 100 nM. For the same compound, in the assay with MCF-7 cells, the “MCF7 Viability Assay Max Response” value is reported as “++ (++ = a single % value ≧ 40%)” and the IC50 was > 100 nM.

In the case of `CC/C(=C(/c1ccc(/C=C/C(=O)O)cc1)c1cc(F)c2[nH]ccc2c1)c1ccccc1` [Compound 92, (E)-3-(4-((E)-1-(7-Fluoro-1H-indol-5-yl)-2-phenylbut-1-en-1-yl)phenyl)acrylic acid], at ER-α in MCF-7 cells, the Emax was ≥ 40% and the DC50 is ≤ 100 nM. Moreover, in the assay with MCF-7 cells, the “MCF7 Viability Assay Max Response” value is listed as “++ (++ = a single % value ≧ 40%)” and the IC50 was ≤ 100 nM.

`CC/C(=C(/c1ccc(/C=C/C(=O)O)cc1)c1ccc2[nH]ncc2c1)c1cccc2occc12` [Compound 96, (E)-3-(4-((E)-2-(Benzofuran-4-yl)-1-(1H-indazol-5-yl)but-1-en-1-yl)phenyl)acrylic acid]: at ER-α in MCF-7 cells, the Emax is ≥ 40% and the DC50 is ≤ 100 nM. In the assay on MCF-7 cells, the “MCF7 Viability Assay Max Response” value is given as “++ (++ = a single % value ≧ 40%)” and the IC50 was ≤ 100 nM.

On to `CC/C(=C(/c1ccc(/C=C/C(=O)O)cc1)c1ccc2c(=O)[nH]ccc2c1)c1ccccc1` [Compound 97, (E)-3-(4-((E)-1-(1-Oxo-1,2-dihydroisoquinolin-6-yl)-2-phenylbut-1-en-1-yl)phenyl)acrylic acid], for which, at ER-α in MCF-7 cells, the Emax is ≥ 40% and the DC50 is > 100 nM. For the same compound, in the assay on MCF-7 cells, the “MCF7 Viability Assay Max Response” value was “++ (++ = a single % value ≧ 40%)” and the IC50 was ≤ 100 nM.
